Test results as given in US11192867B2, “Microbiocidal oxadiazole derivatives” (SYNGENTA PARTICIPATIONS AG, priority 2016, dated 2021).

What was measured:
[1] = system: Glomerella lagenarium (Colletotrichum lagenarium); assay: Fungicidal activity against Glomerella lagenarium (Colletotrichum lagenarium) liquid culture / cucumber / preventative (anthracnose); assay type: cell-based; settings: Colletotrichum orbiculare, 72 h; 20 ppm in the applied formulation; liquid culture (PDB), growth inhibition measured photometrically 3 to 4 days after application; vs untreated control; read-out: disease control
Procedure: Mycelia fragments or conidia suspensions of a fungus prepared either freshly from liquid cultures of the fungus or from cryogenic storage, are directly mixed into nutrient broth. DMSO solutions of the test compound (max. 10 mg/ml) are diluted with 0.025% Tween20 by a factor of 50 and 10 μl of this solution is pipetted into a microtiter plate (96-well format). The nutrient broth containing the fungal spores/mycelia fragments is then added to give an end concentration of the tested compound. The test plates are incubated in the dark at 24° C. and 96% relative humidity. The inhibition of fungal growth is determined photometrically after 2 to 7 days, depending on the pathosystem, and percent antifungal activity relative to the untreated check is calculated.
Conidia of the fungus from cryogenic storage are directly mixed into nutrient broth (PDB—potato dextrose broth). After placing a (DMSO) solution of test compound into a microtiter plate (96-well format), the nutrient broth containing the fungal spores is added. The test plates are incubated at 24° C. and the inhibition of growth is measured photometrically 3 to 4 days after application.
The following compounds at 20 ppm in the applied formulation give at least 80% disease control in this test when compared to untreated control under the same conditions, which show extensive disease development.

[2] = system: Phakopsora pachyrhizi; assay: Fungicidal activity against Phakopsora pachyrhizi / soybean / leaf disc preventative (Asian soybean rust); assay type: in vivo; settings: foliar, 200 ppm in the applied formulation, soybean leaf disks, vs untreated control, read-out: disease control
Procedure: Leaf disks or leaf segments of various plant species are cut from plants grown in a greenhouse. The cut leaf disks or segments are placed in multiwell plates (24-well format) onto water agar. The leaf disks are sprayed with a test solution before (preventative) or after (curative) inoculation. Compounds to be tested are prepared as DMSO solutions (max. 10 mg/ml) which are diluted to the appropriate concentration with 0.025% Tween20 just before spraying. The inoculated leaf disks or segments are incubated under defined conditions (temperature, relative humidity, light, etc.) according to the respective test system. A single evaluation of disease level is carried out 3 to 14 days after inoculation, depending on the pathosystem. Percent disease control relative to the untreated check leaf disks or segments is then calculated. Soybean leaf disks are placed on water agar in multiwell plates (24-well format) and sprayed with the formulated test compound diluted in water. One day after application leaf discs are inoculated by spraying a spore suspension on the lower leaf surface. After an incubation period in a climate cabinet of 24-36 hours in darkness at 20° C. and 75% rh leaf disc are kept at 20° C. with 12 hours light/12 hours and 75% rh. The activity of a compound is assessed as percent disease control compared to untreated when an appropriate level of disease damage appears in untreated check leaf disks (12 to 14 days after application). The following compounds at 200 ppm in the applied formulation give at least 80% disease control in this test when compared to untreated control leaf disks under the same conditions, which show extensive disease development.

[3] = system: Puccinia recondita f. sp. Tritici; assay: Fungicidal activity against Puccinia recondita f. sp. Tritici / wheat / leaf disc preventative (brown rust); assay type: in vivo; settings: foliar, 200 ppm in the applied formulation, wheat leaf segments cv. Kanzler, inoculated 1 day after application, vs untreated control, read-out: disease control
Procedure: Leaf disks or leaf segments of various plant species are cut from plants grown in a greenhouse. The cut leaf disks or segments are placed in multiwell plates (24-well format) onto water agar. The leaf disks are sprayed with a test solution before (preventative) or after (curative) inoculation. Compounds to be tested are prepared as DMSO solutions (max. 10 mg/ml) which are diluted to the appropriate concentration with 0.025% Tween20 just before spraying. The inoculated leaf disks or segments are incubated under defined conditions (temperature, relative humidity, light, etc.) according to the respective test system. A single evaluation of disease level is carried out 3 to 14 days after inoculation, depending on the pathosystem. Percent disease control relative to the untreated check leaf disks or segments is then calculated. Wheat leaf segments cv. Kanzler were placed on agar in multiwell plates (24-well format) and sprayed with the formulated test compound diluted in water. The leaf disks were inoculated with a spore suspension of the fungus 1 day after application. The inoculated leaf segments were incubated at 19° C. and 75% relative humidity (rh) under a light regime of 12 hours light/12 hours darkness in a climate cabinet and the activity of a compound was assessed as percent disease control compared to untreated when an appropriate level of disease damage appears in untreated check leaf segments (7 to 9 days after application). The following compounds at 200 ppm in the applied formulation give at least 80% disease control in this test when compared to untreated control leaf disks under the same conditions, which show extensive disease development.

Row | SMILES | inhibition of growth at 20 ppm [1] [%] | pest or weed control at 200 ppm [2] [%] | pest or weed control at 200 ppm [3] [%]
1 | CC(C=NOC1CCCCO1)NC(=O)c1ccc(-c2noc(C(F)(F)F)n2)cc1 (stereo not shown) [Compound 1.25, N-(1-methyl-2-tetrahydropyran-2-yloxyimino-ethyl)-4-[5-(trifluoromethyl)-1,2,4-oxadiazol-3-yl]benzamide] | ≥ 80 | ≥ 80 | ≥ 80
2 | CCCCON=CC(C)NC(=O)c1ccc(-c2noc(C(F)(F)F)n2)cc1 (stereo not shown) [Compound 1.40, N-(2-butoxyimino-1-methyl-ethyl)-4-[5-(trifluoromethyl)-1,2,4-oxadiazol-3-yl]benzamide] | ≥ 80 | ≥ 80 | ≥ 80
3 | CC(C=NOC(C)(C)C)NC(=O)c1ccc(-c2noc(C(F)(F)F)n2)cc1 (stereo not shown) [Compound 1.45, N-(2-tert-butoxyimino-1-methyl-ethyl)-4-[5-(trifluoromethyl)-1,2,4-oxadiazol-3-yl]benzamide] | ≥ 80 | ≥ 80 | ≥ 80
4 | CC(C=NOCc1ccccc1CC(=O)O)NC(=O)c1ccc(-c2noc(C(F)(F)F)n2)cc1 (stereo not shown) [Compound 1.48, 2-[2-[[2-[[4-[5-(trifluoromethyl)-1,2,4-oxadiazol-3-yl]benzoyl]amino]propylideneamino]oxymethyl]phenyl] acetic acid] | ≥ 80 | ≥ 80 | ≥ 80
5 | COC(=O)Cc1ccccc1CON=CC(C)NC(=O)c1ccc(-c2noc(C(F)(F)F)n2)cc1 (stereo not shown) [Compound 1.49, methyl 2-[2-[[2-[[4-[5-(trifluoromethyl)-1,2,4-oxadiazol-3-yl]benzoyl]amino]propylideneamino]oxymethyl]phenyl]acetate] | ≥ 80 | – | ≥ 80
6 | CC(C=NOC(C)C)NC(=O)c1ccc(-c2noc(C(F)(F)F)n2)cc1 (stereo not shown) [Compound 1.50, N-(2-isopropoxyimino-1-methyl-ethyl)-4-[5-(trifluoromethyl)-1,2,4-oxadiazol-3-yl]benzamide] | ≥ 80 | ≥ 80 | ≥ 80
7 | C=C(Cl)CON=CC(C)NC(=O)c1ccc(-c2noc(C(F)(F)F)n2)cc1 (stereo not shown) [Compound 1.56, N-[2-(2-chloroallyloxy-imino)-1-methyl-ethyl]-4-[5-(trifluoromethyl)-1,2,4-oxadiazol-3-yl]benzamide] | ≥ 80 | ≥ 80 | ≥ 80
8 | O=C(NCC=NOCc1ccc([N+](=O)[O-])cc1)c1ccc(-c2noc(C(F)(F)F)n2)cc1 [Compound 1.61, N-[2-[(4-nitrophenyl)methoxyimino]ethyl]-4-[5-(trifluoromethyl)-1,2,4-oxadiazol-3-yl]benzamide] | – | ≥ 80 | ≥ 80
9 | COc1cccc(CON=CCNC(=O)c2ccc(-c3noc(C(F)(F)F)n3)cc2)c1 [Compound 1.62, N-[2-[(3-methoxyphenyl)methoxyimino]ethyl]-4-[5-(trifluoromethyl)-1,2,4-oxadiazol-3-yl]benzamide] | ≥ 80 | ≥ 80 | ≥ 80
10 | COc1ccc(CON=CCNC(=O)c2ccc(-c3noc(C(F)(F)F)n3)cc2)cc1 [Compound 1.64, N-[2-[(4-methoxyphenyl)methoxyimino]ethyl]-4-[5-(trifluoromethyl)-1,2,4-oxadiazol-3-yl]benzamide] | ≥ 80 | ≥ 80 | ≥ 80
11 | O=C(O)CON=CCNC(=O)c1ccc(-c2noc(C(F)(F)F)n2)cc1 [Compound 1.65, 2-[2-[[4-[5-(trifluoromethyl)-1,2,4-oxadiazol-3-yl]benzoyl]amino]ethylideneamino] oxyacetic acid] | ≥ 80 | ≥ 80 | ≥ 80
12 | O=C(NCC=NOCc1ccccc1Cl)c1ccc(-c2noc(C(F)(F)F)n2)cc1 [Compound 1.67, N-[2-[(2-chlorophenyl)methoxyimino]ethyl]-4-[5-(trifluoromethyl)-1,2,4-oxadiazol-3-yl]benzamide] | ≥ 80 | ≥ 80 | ≥ 80
13 | COc1ccccc1CON=CCNC(=O)c1ccc(-c2noc(C(F)(F)F)n2)cc1 [Compound 1.68, N-[2-[(2-methoxyphenyl)methoxyimino]ethyl]-4-[5-(trifluoromethyl)-1,2,4-oxadiazol-3-yl]benzamide] | ≥ 80 | ≥ 80 | ≥ 80
14 | O=C(NCC=NOCc1ccccc1F)c1ccc(-c2noc(C(F)(F)F)n2)cc1 [Compound 1.69, N-[2-[(2-fluorophenyl)methoxyimino]ethyl]-4-[5-(trifluoromethyl)-1,2,4-oxadiazol-3-yl]benzamide] | ≥ 80 | ≥ 80 | ≥ 80
15 | O=C(NCC=NOCc1ccc(F)cc1Cl)c1ccc(-c2noc(C(F)(F)F)n2)cc1 [Compound 1.71, N-[2-[(2-chloro-4-fluoro-phenyl)methoxy-imino]ethyl]-4-[5-(trifluoromethyl)-1,2,4-oxadiazol-3-yl]benzamide] | ≥ 80 | ≥ 80 | ≥ 80
16 | O=C(NCC=NOCC=C(Cl)Cl)c1ccc(-c2noc(C(F)(F)F)n2)cc1 [Compound 1.79, N-[2-(3,3-dichloroallyloxy-imino)ethyl]-4-[5-(trifluoromethyl)-1,2,4-oxadiazol-3-yl]benzamide] | ≥ 80 | ≥ 80 | ≥ 80
17 | CC(C)=CCON=CCNC(=O)c1ccc(-c2noc(C(F)(F)F)n2)cc1 [Compound 1.80, N-[2-(3-methylbut-2-enoxyimino)ethyl]-4-[5-(trifluoromethyl)-1,2,4-oxadiazol-3-yl]benzamide] | ≥ 80 | ≥ 80 | ≥ 80
18 | COc1cccc(CON=C(C)CNC(=O)c2ccc(-c3noc(C(F)(F)F)n3)cc2)c1 [Compound 1.106, N-[2-[(3-methoxyphenyl)methoxyimino]propyl]-4-[5-(trifluoromethyl)-1,2,4-oxadiazol-3-yl]benzamide] | ≥ 80 | – | ≥ 80
19 | CC(CNC(=O)c1ccc(-c2noc(C(F)(F)F)n2)cc1)=NOCC(=O)O [Compound 1.109, 2-[[1-methyl-2-[[4-[5-(trifluoromethyl)-1,2,4-oxadiazol-3-yl]benzoyl]amino]ethylidene]amino] oxyacetic acid] | ≥ 80 | – | ≥ 80
20 | CC(CNC(=O)c1ccc(-c2noc(C(F)(F)F)n2)cc1)=NOCc1ccccc1CC(=O)O [Compound 1.136, 2-[2-[[[1-methyl-2-[[4-[5-(trifluoromethyl)-1,2,4-oxadiazol-3-yl]benzoyl]amino]ethylidene]amino]oxymethyl]phenyl]acetic acid] | ≥ 80 | – | ≥ 80
